From patent US20260130952A1, “ENGINEERED BACTERIA AND METHODS OF USE IN TUMOR REMODELING” (priority 2021, published 2026)

Test system: 4T1 tumors
Experiment: Antitumor study in 4T1 syngeneic tumor model
Assay type: in vivo, BALB/cJ mice
Experimental: 6-8 weeks old female BALB/cJ and male C57BL/6 mice (Jackson Labs) were used in all experiments. For tumor induction, […] tumor cells/0.1 ml saline (4T1, MDA-MB-231, RInk1, PANC1, MC38) were injected subcutaneously in the shaved right flank of anesthetized (2% isoflurane) mice. Tumor measurements were taken every alternate day and tumor volume was calculated using the following formula: 0.5*length*width*width. For therapeutic assessment or bioluminescent imaging, each bacterial dose contained […] bacteria suspended in 0.1 ml saline was administered intravenously. Lapatinib was suspended in a solution containing 0.5% w/v HPMC and 0.10% w/v Tween 80 and each dose delivered 5 mg/Kg orally. At the study end point the mice were euthanized via carbon dioxide inhalation and cervical dislocation followed by collection of organs. For cytokine profiling, blood withdrawal was performed after a period of 24 hours via the submandibular vein and collected in tubes containing heparin as an anticoagulant (40 U/ml of blood). […]
To test the hypothesis, mice were treated orally with lapatinib at a dose of 5 mg/kg (FIG. 5A). The following 5 treatment groups were assessed in parallel: control mice with saline injections, non-hypervesiculating ECHy+lapatinib, ΔECHy, lapatinib and ΔECHy+lapatinib (n=5). Tumor volume was measured every alternate day. […]

With `CS(=O)(=O)CCNCc1ccc(-c2ccc3ncnc(Nc4ccc(OCc5cccc(F)c5)c(Cl)c4)c3c2)o1` [lapatinib] the median survival (endpoint tumor size 1000 mm^3, bacteria 10^6 i.v., lapatinib 5 mg/kg oral, anti-PDL1 5 mg/kg) was 20 days and the “tumor growth rate / progression” value (n=5) was “comparatively slower”.
